# Measured values as given in patent publication US9694016B2 (Novartis AG, priority 2013, dated 2017).
# Target: b-Raf (V600E) (Homo sapiens (Human), UniProt P15056, V600E)
# Conditions: read-out: b-Raf IC-50; AlphaScreen, 60 min pre-incubation, 3 hours reaction
# b-Raf (V600E), sequence (P15056 whole entry V600E): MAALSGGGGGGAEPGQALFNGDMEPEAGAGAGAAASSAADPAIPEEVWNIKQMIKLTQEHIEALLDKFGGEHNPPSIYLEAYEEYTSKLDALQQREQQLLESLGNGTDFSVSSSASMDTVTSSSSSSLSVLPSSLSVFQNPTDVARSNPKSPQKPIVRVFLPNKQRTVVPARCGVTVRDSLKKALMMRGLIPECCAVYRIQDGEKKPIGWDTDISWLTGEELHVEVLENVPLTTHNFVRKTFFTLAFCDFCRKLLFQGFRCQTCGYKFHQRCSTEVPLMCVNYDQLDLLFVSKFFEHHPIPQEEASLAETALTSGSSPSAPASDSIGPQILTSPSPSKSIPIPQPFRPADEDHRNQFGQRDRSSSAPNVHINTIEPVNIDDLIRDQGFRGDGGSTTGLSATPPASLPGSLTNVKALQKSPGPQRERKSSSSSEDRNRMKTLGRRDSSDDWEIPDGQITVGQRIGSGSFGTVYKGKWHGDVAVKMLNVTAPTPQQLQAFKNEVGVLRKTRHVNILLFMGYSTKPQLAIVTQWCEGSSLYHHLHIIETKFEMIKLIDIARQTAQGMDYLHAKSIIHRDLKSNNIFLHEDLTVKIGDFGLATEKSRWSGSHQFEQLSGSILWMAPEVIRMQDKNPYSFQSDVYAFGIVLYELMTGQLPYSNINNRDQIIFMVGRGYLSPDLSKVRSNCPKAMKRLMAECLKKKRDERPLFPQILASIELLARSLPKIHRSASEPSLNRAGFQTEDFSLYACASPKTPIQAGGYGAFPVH
row,SMILES,IC50 [nM]
1,"CCOc1nnc(-c2cc(NC(=O)c3ccnc(C(C)(C)F)c3)cnc2C)cc1N1CCOCC1 [Example 610, N-(5-(6-ethoxy-5-morpholinopyridazin-3-yl)-6-methylpyridin-3-yl)-2-(2-fluoropropan-2-yl)isonicotinamide]",4.5
2,"Cc1ccc(NC(=O)c2ccnc(C(C)C)c2)cc1-c1cc(N2CCOCC2)nc(N2CC(O)C2)n1 [Example 771, N-(3-(2-(3-hydroxyazetidin-1-yl)-6-morpholinopyrimidin-4-yl)-4-methylphenyl)-2-isopropylisonicotinamide]",2.5
3,"Cc1ncc(NC(=O)c2ccnc(C(C)(C)O)c2)cc1-c1cc(N2CCOCC2)n(C)c(=O)c1 [Example 501, N-(1′,2-dimethyl-6′-morpholino-2′-oxo-1′,2′-dihydro-[3,4′-bipyridin]-5-yl)-2-(2-hydroxypropan-2-yl)isonicotinamide]",32.2
4,"Cc1ccc(NC(=O)c2ccnc(C(C)(C)C#N)c2)cc1-c1cc(N2CCOCC2)c2nccn2n1 [Example 844, 2-(2-cyanopropan-2-yl)-N-(4-methyl-3-(8-morpholinoimidazo[1,2-b]pyridazin-6-yl)phenyl)isonicotinamide]",1.7
5,"Cc1ncc(NC(=O)c2ccnc(C(F)(F)F)c2)cc1-c1cc(N2CCOCC2)n2nccc2n1 [Example 798, N-(6-methyl-5-(7-morpholinopyrazolo[1,5-a]pyrimidin-5-yl)pyridin-3-yl)-2-(trifluoromethyl)isonicotinamide]",1.1
6,"COc1ncc(-c2cc(NC(=O)c3ccnc(S(C)(=O)=O)c3)ccc2C)nc1N1CCOCC1 [Example 546, N-(3-(5-methoxy-6-morpholinopyrazin-2-yl)-4-methylphenyl)-2-(methylsulfonyl)isonicotinamide]",5
7,"CCNc1nc(-c2cc(NC(=O)c3ccnc(C(F)F)c3)cnc2C)cc(N2CCOCC2)n1 [Example 721, 2-(difluoromethyl)-N-(5-(2-(ethylamino)-6-morpholinopyrimidin-4-yl)-6-methylpyridin-3-yl)isonicotinamide]",3.3
8,"Cc1ncc(NC(=O)c2ccnc(C(F)F)c2)cc1-c1cc(N2CCOCC2)n(C)c(=O)c1 [Example 508, 2-(difluoromethyl)-N-(1′,2-dimethyl-6′-morpholino-2′-oxo-1′,2′-dihydro-[3,4′-bipyridin]-5-yl)isonicotinamide]",7.8

# More lines, now with the values ahead:
row,IC50 [nM],SMILES
1,1.2,"COc1nnc(-c2cc(NC(=O)c3cnnc(C(F)(F)F)c3)ccc2C)cc1N1CCOCC1 [Example 551, N-(3-(6-methoxy-5-morpholinopyridazin-3-yl)-4-methylphenyl)-6-(trifluoromethyl)pyridazine-4-carboxamide]"
2,0.9,"Cc1ccc(NC(=O)c2cccc(C(F)(F)F)c2)cc1-c1nc(N2CCOCC2)c2occc2n1 [Example 838, N-(4-methyl-3-(4-morpholinofuro[3,2-d]pyrimidin-2-yl)phenyl)-3-(trifluoromethyl)benzamide]"
3,11.1,"Cc1ncc(NC(=O)c2cccc(C(F)(F)F)c2)cc1-c1cc(N2CCOCC2)nc(N2CC(O)C2)n1 [Example 768, N-(5-(2-(3-hydroxyazetidin-1-yl)-6-morpholinopyrimidin-4-yl)-6-methylpyridin-3-yl)-3-(trifluoromethyl)benzamide]"
4,1.8,"Cc1ccc(NC(=O)c2ccnc(C(C)(C)F)c2)cc1-c1cc(N2CCOCC2)n(C)c(=O)c1 [Example 479, 2-(2-fluoropropan-2-yl)-N-(4-methyl-3-(1-methyl-6-morpholino-2-oxo-1,2-dihydropyridin-4-yl)phenyl)isonicotinamide]"

# Same assay, conditions: read-out: b-Raf IC-50; AlphaScreen, 60 min pre-incubation, reaction 3 hours at room temperature
row,IC50 [nM],SMILES
1,1.83,"CCOc1ncc(-c2cc(C(=O)Nc3cc(C(F)(F)F)ncc3F)ccc2C)cc1N1CCOCC1 [Example 961, 3-(6-ethoxy-5-morpholinopyridin-3-yl)-N-(5-fluoro-2-(trifluoromethyl)pyridin-4-yl)-4-methylbenzamide]"
2,18.8,"Cc1ccc(NC(=O)c2cccc(C(C)(C)S(C)(=O)=O)c2)cc1-c1cc(N2CCOCC2)nc(N2CC(O)C2)c1 [Example 1099, N-(3-(2-(3-hydroxyazetidin-1-yl)-6-morpholinopyridin-4-yl)-4-methylphenyl)-3-(2-(methylsulfonyl)propan-2-yl)benzamide]"
3,2.16,"Cc1ncc(NC(=O)c2ccnc(C(F)F)c2)cc1-c1cc(N2CCOCC2)c(OC(C)C)nn1 [Example 913, 2-(difluoromethyl)-N-(5-(6-isopropoxy-5-morpholinopyridazin-3-yl)-6-methylpyridin-3-yl)isonicotinamide]"
4,23.3,"Cc1ncc(NC(=O)c2cccc(S(C)(=O)=O)c2)cc1-c1cc(N2CCOCC2)nc(N2CC(O)C2)c1 [Example 1084, N-(2′-(3-hydroxyazetidin-1-yl)-2-methyl-6′-morpholino-[3,4′-bipyridin]-5-yl)-3-(methylsulfonyl)benzamide]"
5,5.04,"Cc1ncc(NC(=O)c2ccnc(C(F)F)c2)cc1-c1cc(NCCO)nc(N2CCOCC2)c1 [Example 1039, 2-(difluoromethyl)-N-(2′-((2-hydroxyethyl)amino)-2-methyl-6′-morpholino-[3,4′-bipyridin]-5-yl)isonicotinamide]"
6,1.03,Cc1ccc(NC(=O)c2ccnc(C(F)(F)F)c2)cc1-c1cc(N2CCOCC2)c(S(C)(=O)=O)nn1 [Example 930]
7,108,"Cc1ncc(NC(=O)c2cc(CN(C)C)cc(C(F)(F)F)c2)cc1-c1cc(N2CCOCC2)nc(N2CC(O)C2)c1 [Example 1085, 3-((dimethylamino)methyl)-N-(2′-(3-hydroxyazetidin-1-yl)-2-methyl-6′-morpholino-[3,4′-bipyridin]-5-yl)-5-(trifluoromethyl)benzamide]"
8,1.11,"Cc1ncc(NC(=O)c2ccnc(C(C)(F)F)c2)cc1-c1cc(N2CCOCC2)c(OCC(F)F)nn1 [Example 915, N-(5-(6-(2,2-difluoroethoxy)-5-morpholinopyridazin-3-yl)-6-methylpyridin-3-yl)-2-(1,1-difluoroethyl)isonicotinamide]"
9,9.51,"Cc1ncc(NC(=O)c2cc(C(C)(C)C#N)ccn2)cc1-c1cnc(OC2CCOCC2)c(N2CCOCC2)c1 [Example 943, 4-(2-cyanopropan-2-yl)-N-(2-methyl-5′-morpholino-6′-((tetrahydro-2H-pyran-4-yl)oxy)-[3,3′-bipyridin]-5-yl)picolinamide]"
10,30.6,"CCn1cc(C(=O)Nc2cnc(C)c(-c3cc(NCCO)nc(N4CCOCC4)c3)c2)cc(C(F)(F)F)c1=O [Example 1044, 1-ethyl-N-(2′-((2-hydroxyethyl)amino)-2-methyl-6′-morpholino-[3,4′-bipyridin]-5-yl)-6-oxo-5-(trifluoromethyl)-1,6-dihydropyridine-3-carboxamide]"

# Same assay, conditions: read-out: b-Raf IC-50; Table 2; AlphaScreen, 3 hours reaction
row,SMILES,IC50 [nM]
1,"CCOc1ncc(-c2cc(NC(=O)c3cnnc(C(C)(C)C#N)c3)ccc2C)cc1N1CCOCC1 [Example 284, 6-(2-cyanopropan-2-yl)-N-(3-(6-ethoxy-5-morpholinopyridin-3-yl)-4-methylphenyl)pyridazine-4-carboxamide]",1.1
2,"Cc1ncc(NC(=O)c2ccnc(C(C)(C)F)c2)cc1-c1cnc(OCCO)c(N2CCOCC2)c1 [Example 299, 2-(2-fluoropropan-2-yl)-N-(6′-(2-hydroxyethoxy)-2-methyl-5′-morpholino-[3,3′-bipyridin]-5-yl)isonicotinamide]",6.9
3,"Cc1ccc(NC(=O)c2ccnc(C(C)(C)O)c2)cc1-c1cnc(OC2CCOCC2)c(N2CCOCC2)c1 [Example 277, 2-(2-hydroxypropan-2-yl)-N-(4-methyl-3-(5-morpholino-6-((tetrahydro-2H-pyran-4-yl)oxy)pyridin-3-yl)phenyl)isonicotinamide]",1
4,CCOc1ncc(-c2cc(NC(=O)c3cnnc(C(F)(F)F)c3)cnc2C)cc1N1CCOC[C@H]1C [Example 285],200
5,"CCOc1ncc(-c2cc(NC(=O)c3ccnc(S(C)(=O)=O)c3)cnc2C)cc1N1CCOCC1 [Example 243, N-(6′-ethoxy-2-methyl-5′-morpholino-[3,3′-bipyridin]-5-yl)-2-(methylsulfonyl)isonicotinamide]",5.3

# The next lines start with the values.
row,IC50 [nM],SMILES
1,0.8,"Cn1cc(-c2cc(NC(=O)c3cccc(C(F)F)c3)ccc2Cl)cc(N2CCOCC2)c1=O [Example 412, N-(4-chloro-3-(1-methyl-5-morpholino-6-oxo-1,6-dihydropyridin-3-yl)phenyl)-3-(difluoromethyl)benzamide]"
2,3.1,"CCOc1cc(C(=O)Nc2ccc(C)c(-c3cc(N4CCOCC4)c(=O)n(C)c3)c2)ccc1F [Example 344, 3-ethoxy-4-fluoro-N-(4-methyl-3-(1-methyl-5-morpholino-6-oxo-1,6-dihydropyridin-3-yl)phenyl)benzamide]"
3,0.6,"CCOc1ncc(-c2cc(NC(=O)c3ccnc(C(C)(F)F)c3)ccc2C)cc1N1CCOCC1 [Example 233, 2-(1,1-difluoroethyl)-N-(3-(6-ethoxy-5-morpholinopyridin-3-yl)-4-methylphenyl)isonicotinamide]"
4,3.7,"Cc1ncc(NC(=O)c2cccc(C(F)(F)F)c2)cc1-c1cnc(C(C)(C)C#N)c(N2CCOCC2)c1 [Example 326, N-(6′-(2-cyanopropan-2-yl)-2-methyl-5′-morpholino-[3,3′-bipyridin]-5-yl)-3-(trifluoromethyl)benzamide]"
5,3.9,"Cc1ncc(NC(=O)c2cccc(C(F)(F)F)c2)cc1-c1cnc(CS(C)(=O)=O)c(N2CCOCC2)c1 [Example 327, N-(2-methyl-6′-((methylsulfonyl)methyl)-5′-morpholino-[3,3′-bipyridin]-5-yl)-3-(trifluoromethyl)benzamide]"
6,1.7,"Cn1cc(-c2cc(NC(=O)c3cccc(C(F)(F)F)c3)ccc2Cl)cc(N2CCOCC2)c1=O [Example 409, N-(4-chloro-3-(1-methyl-5-morpholino-6-oxo-1,6-dihydropyridin-3-yl)phenyl)-3-(trifluoromethyl)benzamide]"
7,12.6,"Cc1ccc(NC(=O)c2cn(C(C)C)nc2C)cc1-c1cc(N2CCOCC2)c(=O)n(C)c1 [Example 367, 1-isopropyl-3-methyl-N-(4-methyl-3-(1-methyl-5-morpholino-6-oxo-1,6-dihydropyridin-3-yl)phenyl)-1H-pyrazole-4-carboxamide]"
